Reference: US20070191490A1, “Withacnistin compounds for treatment of cancer” (priority 2006, published 2007)
Where “and” joins values, the source holds several entries; their conditions need not be identical. Equal values may be shown once. Read-outs that look alike come from different tables or passages of the source.

Tests used:
phosphotyrosine-JAK2 = assay: Inhibition of phosphotyrosine-JAK2 levels in tumor cell lines (Western blotting); assay type: cell-based, human; details: for levels of P-JAK2: A549 cells, 10 μM, 4 hours
Procedure: (§1) Western blotting. Treated cell samples were lysed in 30 mM HEPES, pH 7.5, 10 mM NaCl, 5 mM MgCl2, 25 mM NaF, 1 mM EGTA, 1% Triton X-100, 10% glycerol, 2 mM sodium orthovanadate, 10 μg/ml aprotinin, 10μ/ml soybean trypsin inhibitor, 25 μg/ml leupeptin, 2 mM PMSF, and 6.4 mg/ml p-nitrophenylphosphate. Phospho-STAT3, phospho-AKT, phospho-Src, and phospho-p42/p44 MAPK antibodies were obtained from Cell Signaling Technologies (Cambridge, Mass., USA). Phospho-JNK and whole STAT3 antibodies were purchased from Santa Cruz Biotechnology (Santa Cruz, Calif., USA); phospho-JAK2 antibody came from Upstate Biotechnology (Lake Placid, N.Y., USA). Membranes were blocked in either 5% milk in phosphate-buffered saline (PBS), pH 7.4, containing 0.1% Tween-20 (PBS-T) or 1% BSA in tris-buffered saline (TBS), pH 7.5, containing 0.1% Tween-20 (TBS-T). Phospho-specific antibodies (excepting P-MAPK and P-JNK) were incubated in 1% BSA in TBS-T while all other antibodies were diluted in 5% milk in PBS-T for either 2 h at room temperature or overnight at 4° C. HRP-conjugated secondary antibodies (Jackson ImmunoResearch, West Grove, Pa., USA) were diluted in 5% milk in either PBS-T or TBS-T at 1:1000 dilution for 1 h at room temperature. Western blots were visualized using enhanced chemiluminescence.
(§2) To this end, A549 cells (a human non-small-cell lung carcinoma line) were treated with either vehicle, cucurbitacin analogs A, B, E, or I, or withacnistin mixture (10 ∥M) for 4 hours and the cell lysates processed for Western blotting with antiphosphotyrosine STAT3 (Y705) antibody or antiphosphotyrosine JAK2 (Y1007, Y1008) antibody as described under Materials and Methods.
(§3) As further support of the specific antiphosphotyrosine STAT3, but not antiphosphotyrosine JAK2, activity of withacnistin, A549 cells, as well as two breast carcinoma cell lines (MDA-MB-435 and MDA-MB-468) that also express constitutively activated JAK2 and STAT3, were treated with the withacnistin mixture at various concentrations, and determined IC50 values of inhibition of STAT3 and JAK2 activation.

phosphotyrosine-STAT3 = assay: Inhibition of phosphotyrosine-STAT3 levels in tumor cell lines (Western blotting); assay type: cell-based, human
Procedure: as §1, §2, §3

A549 tumors = assay: Antitumor activity in nude mouse xenograft model, A549; assay type: in vivo; details: nude mice
Text: (§4) Antitumor activity in the nude mouse tumor xenograft model. Nude mice (Charles River, Wilmington, Mass., USA) were maintained in accordance with the Institutional Animal Care and Use Committee (IACUC) procedures and guidelines. A549 cells were harvested, resuspended in PBS, and injected subcutaneously (s.c.) into the right and left flank (1×10^7 cells per flank) of 8-week-old female nude mice as reported previously (Blaskovich, M. A. et al. Cancer Res., 2003, 63:1270-1279). When tumors reached about 150 mm^3, animals were randomized (four animals per group; two tumors per animal) and dosed intraperitoneally (i.p.) either with cucurbitacin analogs (0.5 or 1 mg/kg/day, i.p.) in 20% DMSO in water or with an equal volume of vehicle control. The tumor volumes were determined by measuring the length (l) and the width (w) and calculating the volume (V=lw^2/2) as described previously (Blaskovich, M. A. et al. Cancer Res., 2003, 63:1270-1279). Statistical significance between control and treated animals were evaluated by using Student's t-test.
(§5) To determine the ability of the cucurbitacin analogs and withacnistin to inhibit tumor growth in vivo, the antitumor activity of the cucurbitacin analogs and withacnistin against both A549 and v-Src/3T3 tumors in a nude mouse xenograft model was evaluated. When the tumors became palpable (at volumes of approximately 100-150 mm^3), the mice were treated either with vehicle control or 1 mg/kg/day of the cucurbitacins or the withacnistin mixture. Tumor volumes were monitored by caliper measurement as previously described (Blaskovich, M. A. et al. Cancer Res., 2003, 63:1270-1279) and under Materials and Methods.

v-Src/3T3 tumors = assay: Antitumor activity in nude mouse xenograft model, v-Src/3T3; assay type: in vivo; details: v-Src/3T3 xenograft, nude mice
Text: as §4, §5
Withacnistin inhibited 57% of tumor growth while Cuc I, B, and E inhibited 45, 40, and 42% of tumor growth, respectively (FIG. 3 and Table 2).

[1] = 0.5 mg/kg/day i.p., 0.5 mg/kg/day
[2] = 1 mg/kg/day i.p., Wit = withacnistin mixture

Compound | P-JAK2 levels (phosphotyrosine-JAK2; A549 cells (FIG. 8A)) | P-STAT3 levels (phosphotyrosine-STAT3; A549 cells (FIG. 8A)) | levels of P-JAK2 (phosphotyrosine-JAK2) | % Inhibition of tumor growth (A549 tumors; [1]) | levels of P-STAT3 (phosphotyrosine-STAT3) | % Inhibition of tumor growth (v-Src/3T3 tumors; [1]) | % Inhibition of tumor growth (A549 tumors; [2]) [%] | levels of P-STAT3 (phosphotyrosine-STAT3; A549 cells, 10 μM, 4 hours) | % Inhibition of tumor growth (v-Src/3T3 tumors; [2]) [%]
3-ethoxy-2,3-dihydrowithacnistin [EDH-Wit] | suppressed neither | suppressed neither |  |  |  |  |  |  | 
CC(=O)OC(C)(C)/C=C/C(=O)[C@](C)(O)[C@H]1[C@H](O)C[C@@]2(C)[C@@H]3CC=C4[C@H](C[C@H](O)C(=O)C4(C)C)[C@]3(C)C(=O)C[C@]12C [Cuc B, cucurbitacin B] |  |  | inhibited | 53.6% and 53.6^b % | inhibited | 40% and 40^a % |  |  | 
CC(=O)OC(C)(C)/C=C/C(=O)[C@](C)(O)[C@H]1[C@H](O)C[C@@]2(C)[C@@H]3CC=C4[C@@H](C=C(O)C(=O)C4(C)C)[C@]3(C)C(=O)C[C@]12C [Cuc E, cucurbitacin E] |  |  | inhibited |  |  |  | 48.5 | inhibited | 42
